From ChEMBL document CHEMBL2202954, “The effect of PLC-γ2 inhibitors on the growth of human tumour cells” (2012)

What was measured:
Type in all cases: functional
[1] = system: MDA-MB-468; test: Cytotoxicity against human MDA-MB-468 cells assessed as cellular growth at 10 uM by SRB assay
[2] = system: T47D; test: Cytotoxicity against human T47D cells assessed as cellular growth at 10 uM by SRB assay
[3] = system: BT-549; test: Cytotoxicity against human BT549 cells assessed as cellular growth at 10 uM by SRB assay
[4] = system: Hs-578T; test: Cytotoxicity against human Hs578T cells assessed as cellular growth at 10 uM by SRB assay
[5] = system: UO-31; test: Cytotoxicity against human UO31 cells assessed as cellular growth at 10 uM by SRB assay
[6] = system: RXF 393; test: Cytotoxicity against human RXF393 cells assessed as cellular growth at 10 uM by SRB assay
[7] = system: 786-0; test: Cytotoxicity against human 786-0 cells assessed as cellular growth at 10 uM by SRB assay
[8] = system: SK-OV-3; test: Cytotoxicity against human SKOV3 cells assessed as cellular growth at 10 uM by SRB assay
[9] = system: OVCAR-3; test: Cytotoxicity against human OVCAR3 cells assessed as cellular growth at 10 uM by SRB assay
[10] = system: SK-MEL-5; test: Cytotoxicity against human SK-MEL-5 cells assessed as cellular growth at 10 uM by SRB assay
[11] = system: SNB-75; test: Cytotoxicity against human SNB75 cells assessed as cellular growth at 10 uM by SRB assay
[12] = system: SNB-19; test: Cytotoxicity against human SNB19 cells assessed as cellular growth at 10 uM by SRB assay
[13] = system: SF-539; test: Cytotoxicity against human SF539 cells assessed as cellular growth at 10 uM by SRB assay
[14] = system: KM12; test: Cytotoxicity against human KM12 cells assessed as cellular growth at 10 uM by SRB assay
[15] = system: HCT-15; test: Cytotoxicity against human HCT15 cells assessed as cellular growth at 10 uM by SRB assay
[16] = system: HCT-116; test: Cytotoxicity against human HCT116 cells assessed as cellular growth at 10 uM by SRB assay
[17] = system: NCI-H522; test: Cytotoxicity against human NCI-H522 cells assessed as cellular growth at 10 uM by SRB assay
[18] = system: NCI-H226; test: Cytotoxicity against human NCI-H226 cells assessed as cellular growth at 10 uM by SRB assay
[19] = system: NCI-H23; test: Cytotoxicity against human NCI-H23 cells assessed as cellular growth at 10 uM by SRB assay
[20] = system: CCRF-CEM; test: Cytotoxicity against human CCRF-CEM cells assessed as cellular growth at 10 uM by SRB assay

Compound	Activity [1]	Activity [2]	Activity [3]	Activity [4]	Activity [5]	Activity [6]	Activity [7]	Activity [8]	Activity [9]	Activity [10]	Activity [11]	Activity [12]	Activity [13]	Activity [14]	Activity [15]	Activity [16]	Activity [17]	Activity [18]	Activity [19]	Activity [20]
COc1cccc(C(=O)Nc2nc3ccc(Cl)cc3s2)c1	61.26%	79.7%	101.44%	110.55%	92.38%	102.21%	98.19%	90.86%	100.09%	81.61%	109.63%	113.6%	101.47%	49.84%	71.29%	92.95%	78.29%	93.47%	81.36%	81.01%
O=C(Nc1ccc2oc(=O)ccc2c1)c1ccc(-c2ccc(Cl)c(Cl)c2)o1	97.57%	81.58%	77.96%	145.42%	65.88%	98.99%	88.1%	107.01%	102.55%	87.91%	92.21%	101.4%	90.55%	73.78%	72.06%	57.64%	70.34%	92.4%	97.86%	57.99%
O=c1/c(=C/c2ccccc2)sc2nc(-c3ccc(Cl)cc3Cl)nn12	120.34%	94.32%	105.68%	102.33%	88.97%	111.76%	111.75%	98.1%	105.06%	104.93%	80.26%	110.52%	114.11%	114.89%	112.75%	100.59%	99.33%	100.81%	102.55%	105.93%
Clc1ccc(-c2nc(-c3cccs3)no2)cc1	3.37%	66.67%	111.04%	136.36%	74.13%	112.7%	99.58%	106.04%	103.69%	90.07%	81.53%	103.81%	92.56%	92.39%	47.45%	92.37%	92.03%	100.24%	92.82%	78.29%
N#Cc1ccc(NC(=O)c2sc3nc4c(cc3c2N)C(=O)CCC4)cc1	97.58%	95.85%	108.43%	110.8%	103.56%	119.14%	97.81%	106.21%	113.89%	92.55%	113.44%	101.84%	99.77%	101.12%	100.78%	107.92%	102.85%	93.7%	106.13%	99.79%
O=C(Nc1ccc2oc(=O)ccc2c1)c1ccc(-c2ccc(Br)cc2)o1	122.28%	100.95%	118.79%	104.83%	127.52%	112.24%	95.42%	112.03%	125.42%	100.82%	104.41%	105.93%	101.06%	114.03%	108.33%	103.94%	105.32%	112.35%	103.68%	103.74%
Nc1c(C(=O)Nc2cccc(Cl)c2)sc2nc3c(cc12)C(=O)CCC3	-10.56%	52.94%	66.38%	4.53%	57.11%	25.93%	47.72%	35.17%	10.31%	27.21%	25.91%	38.19%	27.25%	21.64%	32.41%	27.38%	14.59%	57.93%	38%	13.46%
